From patent publication US11952433B2, “Heterochiral peptide-complex and composition for measuring nuclear magnetic resonance spectroscopy residual dipolar coupling containing self-assembled intermediates of heterochiral peptide-complex” (INDUSTRY-ACADEMIC COOPERATION FOUNDATION, YONSEI UNIVERSITY, priority 2020, dated 2024) come the findings set out here.

A short description of series [1]: Time course of self-assembly in solution by CD and AFM. The format is physicochemical. To be noted: in water; for self-assembly kinetics (in words): CD and AFM with time. As to the method: The CD spectra of the peptide complexes in aqueous solution were acquired using a Chirascan™ CD spectrometer. All the peptide complexes were adjusted to 20 μM with DI water and then incubated at room temperature for 2 hours. The CD spectra were recorded using a 2-mm path-length cuvette from 250 nm to 190 nm at 25° C. Each spectrum was collected by averaging three scans and corrected for the distilled water background spectrum.
The peptide complex samples were diluted to 20 μM and 10 μL was dropped onto a freshly cleaved mica plate. After 1 minute of incubation, the mica plate was washed with 100 μL of doubly distilled water and then the residual solution was gently removed using filter paper. After completely drying at room temperature, AFM measurement was made. The AFM scans were conducted at noncontact mode (NCM) with a Park NX10 instrument (Park Systems, Korea). The scanning was performed at a scan rate of 0.3 Hz and a Z-gain of 1.
All the peptide samples were diluted to 1 mM and divided into 1-mL aliquots. The aliquots were heated at 95° C. for 1 hour and slowly annealed in a water bath overnight. After the annealing process, the samples were incubated at room temperature and the self-assembly process with time was analyzed by CD, AFM, WAXS, NMR, etc.

Series [2] in a line: Wide-angle X-ray scattering (WAXS) of the colloidal crystal solution. To be noted: for WAXS d-spacing, intersheet distance / WAXS reflection d (second reflection) / WAXS reflection d, interstrand distance of β-sheets: 3.0 mg/mL, room temperature. It is filed as physicochemical. As to the method: Wide-angle X-ray scattering analysis was performed using the 4C SAXS II beamline (BL) of the Pohang Accelerator Laboratory (PAL, Korea). In-vacuum undulator 20 of the Pohang Light Source II storage ring was used as a beam source, and a vertical toroidal focusing mirror was used to deliver an X-ray beam of 0.675 Å. 100 μL of the sample solution was mounted in a quartz microcapillary with a thickness of 10 μm and a length of 80 mm. The sample was irradiated for 5 seconds of exposure time at room temperature. The concentrations of the samples of Comparative Examples 1-2 and Example 1 (T-W6, T-w6 and T-(wW)3) were all 3.0 mg/mL. The X-ray scattering patterns were collected by using a charge-coupled detector (Mar USA, Inc.) positioned 20 cm apart from the sample (0.25 Å^−1<q<2.00 Å^−1).
The data were captured in six continuous frames of 0.1 minute each to minimize the damage from irradiation. Each 2D scattering pattern was averaged circularly from the beam focus and normalized to the intensity of the transmitted X-ray beam. The transmitted beam intensity was monitored with a scintillation counter. The scattering pattern of water was used as the experimental background.
However, the detailed molecular arrangement of the peptide in each crystal might be different. To address this question, wide-angle X-ray scattering (WAXS) analysis of the colloidal crystal solution was performed.

“(D)Trp-(L)Trp-(D)Trp-(L)Tre-(D)Trp-(L)Trp [Example 1]”: the “self-assembly kinetics (in words)” value in series [1] was “markedly slower self-assembly kinetics”. For the same substance, the “time after which the increase in CD signals had almost ceased (self-assembly equilibrium)” value in series [1] (room temperature after annealing) stood at 2 weeks. Moreover, in series [2], the “distance between the β strands” value is 4.56-4.92 Å; the “WAXS d-spacing, intersheet distance” value is given as 17.0 Å; the “WAXS reflection d (second reflection)” value was determined as 5.6 Å; the “WAXS reflection d, interstrand distance of β-sheets” value (shortened to “WAXS reflection d … of β-sheets”) was 4.7 Å.
Take “PEGylated (D)Trp-(D)Trp-(D)Trp-(D)Trp-(D)Trp-(D)Trp [Comparative Example 2]”: in series [2], the “WAXS d-spacing, intersheet distance” value came to 17.5 Å; the “WAXS reflection d (second reflection)” value came out at 5.8 Å; the “WAXS reflection d … of β-sheets” value is given as 4.7 Å.
For “PEGylated (L)Trp-(D)Trp-(L)Trp-(D)Trp-(L)Trp-(D)Trp [Example 2]”, in series [1], the “self-assembly kinetics (in words)” value is on record as “same slow assembly kinetics”.
In the case of “PEGylated (L)Trp-(L)Trp-(L)Trp-(L)Trp-(L)Trp-(L)Trp [Comparative Example 1]”, in series [2], the “WAXS d-spacing, intersheet distance” value is on record as 17.5 Å; the “WAXS reflection d (second reflection)” value was determined as 5.8 Å; the “WAXS reflection d … of β-sheets” value is 4.7 Å.
